system: SNB-75; experiment: Growth inhibition of human SNB75 cells assessed as cell growth at 10 uM incubated for 48 hrs by sulforhodamine B assay relative to control; format: functional; conditions: SNB-75, 48 h, read-out: Activity

Row | SMILES | growth at 10 µM [%]
1 | CCOC(=O)c1c(C)oc2ncnc(Nc3ccc(OCc4cccc(C)c4)cc3)c12 | 106

system: SF-539; experiment: Growth inhibition of human SF539 cells assessed as cell growth at 10 uM incubated for 48 hrs by sulforhodamine B assay relative to control; format: functional; conditions: SF-539, 48 h, read-out: Activity

Row | SMILES | growth at 10 µM [%]
2 | CCOC(=O)c1c(C)oc2ncnc(Nc3ccc(OCc4cccc(C)c4)cc3)c12 | 95.4

system: UACC-62; experiment: Growth inhibition of human UACC62 cells assessed as cell growth at 10 uM incubated for 48 hrs by sulforhodamine B assay relative to control; format: functional; conditions: UACC-62, 48 h, read-out: Activity

Row | SMILES | growth at 10 µM [%]
3 | CCOC(=O)c1c(C)oc2ncnc(Nc3ccc(OCc4cccc(C)c4)cc3)c12 | 80.7

system: KM12; experiment: Growth inhibition of human KM12 cells assessed as cell growth at 10 uM incubated for 48 hrs by sulforhodamine B assay relative to control; format: functional; conditions: KM12, 48 h, read-out: Activity

Row | SMILES | growth at 10 µM [%]
4 | CCOC(=O)c1c(C)oc2ncnc(Nc3ccc(OCc4cccc(C)c4)cc3)c12 | 96.1

biological target: Receptor tyrosine-protein kinase erbB-2 (Homo sapiens) (UniProt P04626); experiment: Inhibition of recombinant human N-terminal GST-tagged HER2 (679 to 1255 residues) expressed in baculovirus infected Sf9 cells at 10 uM using poly[Glu:Tyr] (4:1) as substrate after 40 mins by Kinase-Glo plus luminescence assay relative to control; conditions: not given
Sequence (P04626 whole entry, the tested form may be a part): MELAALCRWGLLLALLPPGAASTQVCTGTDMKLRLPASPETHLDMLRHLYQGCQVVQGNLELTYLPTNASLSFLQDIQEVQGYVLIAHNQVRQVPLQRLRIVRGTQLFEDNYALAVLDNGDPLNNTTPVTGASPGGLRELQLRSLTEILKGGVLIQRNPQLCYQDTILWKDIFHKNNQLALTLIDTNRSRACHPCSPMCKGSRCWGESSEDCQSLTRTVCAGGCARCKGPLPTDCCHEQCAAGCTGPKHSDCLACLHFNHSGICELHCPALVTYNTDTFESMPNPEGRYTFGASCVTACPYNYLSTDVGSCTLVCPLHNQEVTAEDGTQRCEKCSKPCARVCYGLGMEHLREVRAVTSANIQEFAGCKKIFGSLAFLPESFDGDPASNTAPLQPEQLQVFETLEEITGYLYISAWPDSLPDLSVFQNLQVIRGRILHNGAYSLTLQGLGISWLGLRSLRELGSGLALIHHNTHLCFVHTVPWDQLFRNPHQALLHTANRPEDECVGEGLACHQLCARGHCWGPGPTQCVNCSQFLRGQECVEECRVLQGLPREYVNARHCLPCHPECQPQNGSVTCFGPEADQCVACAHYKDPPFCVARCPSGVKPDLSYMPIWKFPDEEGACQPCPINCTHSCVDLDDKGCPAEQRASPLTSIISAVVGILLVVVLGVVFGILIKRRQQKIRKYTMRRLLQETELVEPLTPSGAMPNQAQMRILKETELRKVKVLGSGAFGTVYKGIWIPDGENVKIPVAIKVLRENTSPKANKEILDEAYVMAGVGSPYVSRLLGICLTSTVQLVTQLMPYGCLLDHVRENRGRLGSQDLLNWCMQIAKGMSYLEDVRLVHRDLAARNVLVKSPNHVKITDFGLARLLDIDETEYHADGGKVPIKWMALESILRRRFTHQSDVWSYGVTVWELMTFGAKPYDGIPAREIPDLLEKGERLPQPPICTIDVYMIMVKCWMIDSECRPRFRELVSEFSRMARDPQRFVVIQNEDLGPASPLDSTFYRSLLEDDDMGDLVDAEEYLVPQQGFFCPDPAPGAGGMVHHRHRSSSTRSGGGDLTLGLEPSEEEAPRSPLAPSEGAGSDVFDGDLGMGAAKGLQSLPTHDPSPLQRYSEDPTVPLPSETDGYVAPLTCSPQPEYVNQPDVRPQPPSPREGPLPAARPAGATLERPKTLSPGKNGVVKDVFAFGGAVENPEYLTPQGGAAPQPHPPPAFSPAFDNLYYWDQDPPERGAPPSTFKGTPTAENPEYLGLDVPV

Row | SMILES | inhibition [%]
5 | CCOC(=O)c1c(C)oc2ncnc(Nc3ccc(OCc4cccc(C)c4)cc3)c12 | 16

system: SR; experiment: Growth inhibition of human SR cells assessed as cell growth at 10 uM incubated for 48 hrs by sulforhodamine B assay relative to control; format: functional; conditions: read-out: Activity

Row | SMILES | growth at 10 µM [%]
6 | CCOC(=O)c1c(C)oc2ncnc(Nc3ccc(OCc4cccc(C)c4)cc3)c12 | 116

system: NCI/ADR-RES; experiment: Growth inhibition of human NCI/ADR-RES cells assessed as cell growth at 10 uM incubated for 48 hrs by sulforhodamine B assay relative to control; format: functional; conditions: read-out: Activity

Row | SMILES | growth at 10 µM [%]
7 | CCOC(=O)c1c(C)oc2ncnc(Nc3ccc(OCc4cccc(C)c4)cc3)c12 | 97

system: OVCAR-5; experiment: Growth inhibition of human OVCAR5 cells assessed as cell growth at 10 uM incubated for 48 hrs by sulforhodamine B assay relative to control; format: functional; conditions: OVCAR-5, 48 h, read-out: Activity

Row | SMILES | growth at 10 µM [%]
8 | CCOC(=O)c1c(C)oc2ncnc(Nc3ccc(OCc4cccc(C)c4)cc3)c12 | 107

system: OVCAR-8; experiment: Growth inhibition of human OVCAR8 cells assessed as cell growth at 10 uM incubated for 48 hrs by sulforhodamine B assay relative to control; format: functional; conditions: OVCAR-8, 48 h, read-out: Activity

Row | SMILES | growth at 10 µM [%]
9 | CCOC(=O)c1c(C)oc2ncnc(Nc3ccc(OCc4cccc(C)c4)cc3)c12 | 106

system: NCI-H460; experiment: Growth inhibition of human NCI-H460 cells assessed as cell growth at 10 uM incubated for 48 hrs by sulforhodamine B assay relative to control; format: functional; conditions: NCI-H460, 48 h, read-out: Activity

Row | SMILES | growth at 10 µM [%]
10 | CCOC(=O)c1c(C)oc2ncnc(Nc3ccc(OCc4cccc(C)c4)cc3)c12 | 95.5

system: K562; experiment: Growth inhibition of human K562 cells assessed as cell growth at 10 uM incubated for 48 hrs by sulforhodamine B assay relative to control; format: functional; conditions: K562, 48 h, read-out: Activity

Row | SMILES | growth at 10 µM [%]
11 | CCOC(=O)c1c(C)oc2ncnc(Nc3ccc(OCc4cccc(C)c4)cc3)c12 | 98

system: HCT-15; experiment: Growth inhibition of human HCT15 cells assessed as cell growth at 10 uM incubated for 48 hrs by sulforhodamine B assay relative to control; format: functional; conditions: HCT-15, 48 h, read-out: Activity

Row | SMILES | growth at 10 µM [%]
12 | CCOC(=O)c1c(C)oc2ncnc(Nc3ccc(OCc4cccc(C)c4)cc3)c12 | 99.5

system: LOX IMVI; experiment: Growth inhibition of human LOXIMVI cells assessed as cell growth at 10 uM incubated for 48 hrs by sulforhodamine B assay relative to control; format: functional; conditions: read-out: Activity

Row | SMILES | growth at 10 µM [%]
13 | CCOC(=O)c1c(C)oc2ncnc(Nc3ccc(OCc4cccc(C)c4)cc3)c12 | 91.8

system: T47D; experiment: Growth inhibition of human T47D cells assessed as cell growth at 10 uM incubated for 48 hrs by sulforhodamine B assay relative to control; format: functional; conditions: read-out: Activity

Row | SMILES | growth at 10 µM [%]
14 | CCOC(=O)c1c(C)oc2ncnc(Nc3ccc(OCc4cccc(C)c4)cc3)c12 | 87.3

system: CCRF-CEM; experiment: Growth inhibition of human CCRF-CEM cells assessed as cell growth at 10 uM incubated for 48 hrs by sulforhodamine B assay relative to control; format: functional; conditions: read-out: Activity

Row | SMILES | growth at 10 µM [%]
15 | CCOC(=O)c1c(C)oc2ncnc(Nc3ccc(OCc4cccc(C)c4)cc3)c12 | 107

system: NCI-H226; experiment: Growth inhibition of human NCI-H226 cells assessed as cell growth at 10 uM incubated for 48 hrs by sulforhodamine B assay relative to control; format: functional; conditions: NCI-H226, 48 h, read-out: Activity

Row | SMILES | growth at 10 µM [%]
16 | CCOC(=O)c1c(C)oc2ncnc(Nc3ccc(OCc4cccc(C)c4)cc3)c12 | 101

system: CAKI-1; experiment: Growth inhibition of human Caki1 cells assessed as cell growth at 10 uM incubated for 48 hrs by sulforhodamine B assay relative to control; format: functional; conditions: CAKI-1, 48 h, read-out: Activity

Row | SMILES | growth at 10 µM [%]
17 | CCOC(=O)c1c(C)oc2ncnc(Nc3ccc(OCc4cccc(C)c4)cc3)c12 | 95.6

system: SK-OV-3; experiment: Growth inhibition of human SKOV3 cells assessed as cell growth at 10 uM incubated for 48 hrs by sulforhodamine B assay relative to control; format: functional; conditions: SK-OV-3, 48 h, read-out: Activity

Row | SMILES | growth at 10 µM [%]
18 | CCOC(=O)c1c(C)oc2ncnc(Nc3ccc(OCc4cccc(C)c4)cc3)c12 | 96.7

system: SK-MEL-28; experiment: Growth inhibition of human SK-MEL-28 cells assessed as cell growth at 10 uM incubated for 48 hrs by sulforhodamine B assay relative to control; format: functional; conditions: SK-MEL-28, 48 h, read-out: Activity

Row | SMILES | growth at 10 µM [%]
19 | CCOC(=O)c1c(C)oc2ncnc(Nc3ccc(OCc4cccc(C)c4)cc3)c12 | 101

system: M14; experiment: Growth inhibition of human M14 cells assessed as cell growth at 10 uM incubated for 48 hrs by sulforhodamine B assay relative to control; format: functional; conditions: M14, 48 h, read-out: Activity

Row | SMILES | growth at 10 µM [%]
20 | CCOC(=O)c1c(C)oc2ncnc(Nc3ccc(OCc4cccc(C)c4)cc3)c12 | 86.5

system: DU-145; experiment: Growth inhibition of human DU145 cells assessed as cell growth at 10 uM incubated for 48 hrs by sulforhodamine B assay relative to control; format: functional; conditions: DU-145, 48 h, read-out: Activity

Row | SMILES | growth at 10 µM [%]
21 | CCOC(=O)c1c(C)oc2ncnc(Nc3ccc(OCc4cccc(C)c4)cc3)c12 | 101

system: COLO 205; experiment: Growth inhibition of human COLO205 cells assessed as cell growth at 10 uM incubated for 48 hrs by sulforhodamine B assay relative to control; format: functional; conditions: COLO 205, 48 h, read-out: Activity

Row | SMILES | growth at 10 µM [%]
22 | CCOC(=O)c1c(C)oc2ncnc(Nc3ccc(OCc4cccc(C)c4)cc3)c12 | 100

biological target: Epidermal growth factor receptor (Homo sapiens, UniProt P00533); experiment: Inhibition of recombinant human C-terminal His/N-terminal GST-tagged EGFR (668 to 1210 residues) expressed in baculovirus infected Sf9 cells at 10 uM using biotin-labeled poly[Glu:Tyr] (4:1) as substrate after 30 mins by Kinase-Glo plus luminescence assay relative to control; conditions: not given
Sequence (P00533 whole entry, the tested form may be a part): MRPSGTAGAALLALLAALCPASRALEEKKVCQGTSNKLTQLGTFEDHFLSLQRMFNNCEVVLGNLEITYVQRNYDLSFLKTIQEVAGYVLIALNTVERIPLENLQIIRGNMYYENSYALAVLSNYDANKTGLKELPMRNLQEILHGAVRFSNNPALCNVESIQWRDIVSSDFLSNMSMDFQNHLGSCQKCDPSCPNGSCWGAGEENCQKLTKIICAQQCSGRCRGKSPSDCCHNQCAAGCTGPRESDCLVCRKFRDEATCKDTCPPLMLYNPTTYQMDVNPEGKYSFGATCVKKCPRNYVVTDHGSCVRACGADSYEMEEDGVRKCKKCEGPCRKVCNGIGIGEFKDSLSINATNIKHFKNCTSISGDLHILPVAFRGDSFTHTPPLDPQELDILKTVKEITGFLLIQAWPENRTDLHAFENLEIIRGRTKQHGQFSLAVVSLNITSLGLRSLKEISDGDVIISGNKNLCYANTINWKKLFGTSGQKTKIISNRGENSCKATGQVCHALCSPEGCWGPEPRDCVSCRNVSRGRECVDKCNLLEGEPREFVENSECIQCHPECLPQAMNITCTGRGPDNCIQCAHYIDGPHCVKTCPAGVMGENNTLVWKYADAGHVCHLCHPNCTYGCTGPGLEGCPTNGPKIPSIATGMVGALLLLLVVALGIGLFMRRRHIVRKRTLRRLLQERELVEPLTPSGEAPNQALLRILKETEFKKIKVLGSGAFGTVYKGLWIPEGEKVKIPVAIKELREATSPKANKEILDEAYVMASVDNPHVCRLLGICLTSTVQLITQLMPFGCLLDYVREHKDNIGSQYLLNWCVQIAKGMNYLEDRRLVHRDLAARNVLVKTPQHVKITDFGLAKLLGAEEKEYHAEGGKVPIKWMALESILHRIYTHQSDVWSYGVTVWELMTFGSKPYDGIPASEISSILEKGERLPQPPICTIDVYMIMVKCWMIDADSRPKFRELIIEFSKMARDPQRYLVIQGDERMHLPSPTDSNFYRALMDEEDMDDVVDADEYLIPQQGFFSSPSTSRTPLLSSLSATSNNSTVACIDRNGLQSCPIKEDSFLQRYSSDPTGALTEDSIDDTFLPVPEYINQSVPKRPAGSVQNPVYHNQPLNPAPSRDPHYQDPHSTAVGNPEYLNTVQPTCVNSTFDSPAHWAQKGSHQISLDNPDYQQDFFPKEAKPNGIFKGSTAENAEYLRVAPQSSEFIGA

Row | SMILES | inhibition [%]
23 | CCOC(=O)c1c(C)oc2ncnc(Nc3ccc(OCc4cccc(C)c4)cc3)c12 | 6

system: SK-MEL-5; experiment: Growth inhibition of human SK-MEL-5 cells assessed as cell growth at 10 uM incubated for 48 hrs by sulforhodamine B assay relative to control; format: functional; conditions: SK-MEL-5, 48 h, read-out: Activity

Row | SMILES | growth at 10 µM [%]
24 | CCOC(=O)c1c(C)oc2ncnc(Nc3ccc(OCc4cccc(C)c4)cc3)c12 | 99.2

system: A498; experiment: Growth inhibition of human A498 cells assessed as cell growth at 10 uM incubated for 48 hrs by sulforhodamine B assay relative to control; format: functional; conditions: A498, 48 h, read-out: Activity

Row | SMILES | growth at 10 µM [%]
25 | CCOC(=O)c1c(C)oc2ncnc(Nc3ccc(OCc4cccc(C)c4)cc3)c12 | 84.4

system: HOP-62; experiment: Growth inhibition of human HOP62 cells assessed as cell growth at 10 uM incubated for 48 hrs by sulforhodamine B assay relative to control; format: functional; conditions: HOP-62, 48 h, read-out: Activity

Row | SMILES | growth at 10 µM [%]
26 | CCOC(=O)c1c(C)oc2ncnc(Nc3ccc(OCc4cccc(C)c4)cc3)c12 | 101

system: UO-31; experiment: Growth inhibition of human UO31 cells assessed as cell growth at 10 uM incubated for 48 hrs by sulforhodamine B assay relative to control; format: functional; conditions: UO-31, 48 h, read-out: Activity

Row | SMILES | growth at 10 µM [%]
27 | CCOC(=O)c1c(C)oc2ncnc(Nc3ccc(OCc4cccc(C)c4)cc3)c12 | 101

Source: ChEMBL document CHEMBL4251615, “Discovery of anilino-furo[2,3-d]pyrimidine derivatives as dual inhibitors of EGFR/HER2 tyrosine kinase and their anticancer activity” (Eur J Med Chem, 2018)
